How the values were obtained:
[1] = Metabolic stability in rat liver microsomes; assay type: ADME, Microsome; conditions: read-out: Stability
[2] = Metabolic stability in human liver microsomes; assay type: ADME, Microsome; conditions: read-out: Stability
[3] = test system: Oryctolagus cuniculus; assay: Inhibition of des-Arg-Kallidin-induced hypotensive response in sc dosed rabbit; assay type: functional, organism-based; parameters: scale not given: the % may be the effect or the level left
[4] = molecular target: T1, B1 bradykinin receptor (Homo sapiens, UniProt P46663); assay: Displacement of [3H]DAK from human bradykinin B1 receptor expressed in clone CHO-D-/aequorin cells; assay type: cell-based
T1 sequence (P46663 whole entry): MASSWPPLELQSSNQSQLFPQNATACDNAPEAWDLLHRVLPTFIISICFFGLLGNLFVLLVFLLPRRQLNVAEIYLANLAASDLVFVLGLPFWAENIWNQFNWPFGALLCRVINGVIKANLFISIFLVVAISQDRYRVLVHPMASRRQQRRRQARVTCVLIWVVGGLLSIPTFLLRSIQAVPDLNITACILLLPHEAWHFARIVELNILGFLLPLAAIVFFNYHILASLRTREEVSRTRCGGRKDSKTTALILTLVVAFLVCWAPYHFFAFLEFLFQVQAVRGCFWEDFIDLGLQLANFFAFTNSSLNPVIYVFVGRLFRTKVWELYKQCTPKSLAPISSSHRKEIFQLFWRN

[5] = molecular target: T1, B1 bradykinin receptor; assay: Antagonist activity at human bradykinin B1 receptor expressed in clone CHO-D-/aequorin cells by aquerin based assay; assay type: functional, cell-based
[6] = molecular target: T2, B1 bradykinin receptor (Oryctolagus cuniculus, UniProt P48748); assay: Antagonist activity at rabbit bradykinin B1 receptor expressed in clone CHO-D-/aequorin cells by aquerin based assay; assay type: functional, cell-based
T2 sequence (P48748 whole entry): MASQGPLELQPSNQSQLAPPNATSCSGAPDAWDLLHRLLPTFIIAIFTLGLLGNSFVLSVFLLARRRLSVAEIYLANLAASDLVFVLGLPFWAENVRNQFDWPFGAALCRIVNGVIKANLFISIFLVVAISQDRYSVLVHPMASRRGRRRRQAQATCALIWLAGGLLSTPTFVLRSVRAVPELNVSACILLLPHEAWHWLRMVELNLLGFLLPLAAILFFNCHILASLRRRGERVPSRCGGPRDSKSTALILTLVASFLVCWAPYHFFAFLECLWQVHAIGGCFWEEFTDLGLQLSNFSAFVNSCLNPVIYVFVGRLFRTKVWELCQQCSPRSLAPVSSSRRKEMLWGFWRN

Row | Structure (SMILES) | microsomal CLint [1] | microsomal CLint [2] | Ki [4] | IC50 [5] | IC50 [6] | Activity [3]
1 | O=C(C[C@@H](NS(=O)(=O)c1ccc2ccccc2c1)c1ccccc1)N[C@@H]1CCCc2cc(CN3CCCCC3)ccc21 | 572 µL/min/mg | 919 µL/min/mg |  |  |  | 
2 | O=C(C[C@@H](NS(=O)(=O)c1cccc(C(F)(F)F)c1)c1ccc(F)cc1)N[C@@H]1CCOc2cc(CN3CCCCC3)ccc21 |  |  |  |  |  | 47%
3 | O=C(CC(CS(=O)(=O)c1ccc2ccccc2c1)c1ccccc1)N[C@@H]1CCCc2cc(CN3CCCCC3)ccc21 (stereo not given in full) | 167 µL/min/mg | 744 µL/min/mg | 1.5 nM | 13.7 nM |  | 
4 | CO[C@H](CCS(=O)(=O)c1ccc2ccccc2c1)C(=O)N[C@@H]1CCCc2cc(CN3CCCCC3)ccc21 | 237 µL/min/mg | 216 µL/min/mg |  |  |  | 
5 | O=C(N[C@@H]1CCCc2cc(CN3CCCCC3)ccc21)[C@@H](O)CCS(=O)(=O)c1ccc2ccccc2c1 | 143 µL/min/mg | 100 µL/min/mg | 19.1 nM | 30.8 nM |  | 
6 | O=C(N[C@@H]1CCCc2cc(CN3CCCCC3)ccc21)[C@H](O)CCS(=O)(=O)c1ccc2ccccc2c1 | 50 µL/min/mg | 100 µL/min/mg | 23.5 nM | 50.6 nM |  | 
7 | CO[C@@H](CC(=O)N[C@@H]1CCCc2cc(CN3CCCCC3)ccc21)CS(=O)(=O)c1ccc2ccccc2c1 | 316 µL/min/mg | 274 µL/min/mg |  |  |  | 
8 | O=C(CCCS(=O)(=O)c1ccc2ccccc2c1)N[C@@H]1CCCc2cc(CN3CCCCC3)ccc21 | 100 µL/min/mg | 50 µL/min/mg |  |  |  | 
9 | O=C(C[C@@H](O)CS(=O)(=O)c1ccc2ccccc2c1)N[C@@H]1CCCc2cc(CN3CCCCC3)ccc21 |  |  | 100 nM | 107 nM |  | 

Further lines, with some results ahead:

Row | microsomal CLint [1] | microsomal CLint [2] | Ki [4] | IC50 [5] | IC50 [6] | Structure (SMILES) | Activity [3]
10 | 50 µL/min/mg | 50 µL/min/mg |  |  |  | Cc1ccc(S(=O)(=O)C[C@@H](O)[C@@H](O)C(=O)N[C@@H]2CCCc3cc(CN4CCCCC4)ccc32)cc1 | 
11 | 50 µL/min/mg | 319 µL/min/mg |  |  |  | O=C(N[C@@H]1CCCc2cc(CN3CCCCC3)ccc21)[C@H](O)[C@H](O)CS(=O)(=O)c1ccccc1 | 
12 | 50 µL/min/mg | 50 µL/min/mg | 48.4 nM | 44.9 nM | 210 nM | O=C(N[C@@H]1CCCc2cc(CN3CCCCC3)ccc21)[C@H](O)[C@H](O)CS(=O)(=O)c1ccc(C(F)(F)F)cc1 | 
13 | 50 µL/min/mg | 296 µL/min/mg | 15.8 nM | 4.5 nM | 25.3 nM | CC(C)(C)c1ccc(S(=O)(=O)C[C@@H](O)[C@@H](O)C(=O)N[C@@H]2CCCc3cc(CN4CCCCC4)ccc32)cc1 | 
14 | 50 µL/min/mg | 214 µL/min/mg |  |  |  | O=C(N[C@@H]1CCCc2cc(CN3CCCCC3)ccc21)[C@H](O)[C@H](O)CS(=O)(=O)c1cccc(Cl)c1Cl | 
15 | 193 µL/min/mg | 100 µL/min/mg | 16.9 nM | 17.1 nM | 20.3 nM | O=C(N[C@@H]1CCCc2cc(CN3CCCCC3)ccc21)[C@H](O)[C@H](O)CS(=O)(=O)c1ccc(Cl)c(Cl)c1 | 
16 | 139 µL/min/mg | 180 µL/min/mg |  |  |  | O=C(N[C@@H]1CCCc2cc(CN3CCCCC3)ccc21)[C@H](O)[C@H](O)CS(=O)(=O)c1cccc(Cl)c1 | 
17 | 100 µL/min/mg | 112 µL/min/mg | 41.4 nM | 48.9 nM |  | O=C(C[C@H](O)CS(=O)(=O)c1ccc2ccccc2c1)N[C@@H]1CCCc2cc(CN3CCCCC3)ccc21 | 
